Measurements as given in patent US8889881B2, “Compound having skin-whitening, anti-oxidizing and PPAR activities and medical use therefor” (Pusan National University Industry —University Cooperation …, priority 2011, dated 2014).

Key:
[1] = tested on: Mushroom-derived tyrosinase; assay: Tyrosinase inhibitory effect; format: biochemical; conditions: 1 mM L-tyrosin, pH 6.5, 25° C., 30 minutes, OD492; positive control kojic acid; FIGS. 3 and 4
Procedure: Mushroom-derived tyrosinase was sued as an enzyme source in the present experiment. Tyrosinase activities were assayed according to a slightly-modified conventionally known method (Life Sci., 1999, 65, 241-246). In detail, 20 μl of a mushroom-derived tyrosinase (1000 units) aqueous solution was added to 96-well microplate (Nunc, Denmark) to prepare 200 μl of the total volume of assay mixture containing 1 mM L-tyrosin solution and 50 mM phosphate buffer solution (pH 6.5). The assay mixture was cultured at a temperature of 25° C. for 30 minutes.

PPAR alpha-LBD = target: T1, PPAR alpha-LBD (Homo sapiens, UniProt Q07869); assay: PPAR assay, PPARα; conditions: for PPARα activation (competitive activation rate), compared with fenofibrate: sample final concentration 100 μM, positive control fenofibrate, FIGS. 5 and 6; for simultaneous activation of PPARα and PPARγ: summary of the PPARα and PPARγ assays, sample 100 μM
T1 sequence (Q07869 239-466 limits assumed): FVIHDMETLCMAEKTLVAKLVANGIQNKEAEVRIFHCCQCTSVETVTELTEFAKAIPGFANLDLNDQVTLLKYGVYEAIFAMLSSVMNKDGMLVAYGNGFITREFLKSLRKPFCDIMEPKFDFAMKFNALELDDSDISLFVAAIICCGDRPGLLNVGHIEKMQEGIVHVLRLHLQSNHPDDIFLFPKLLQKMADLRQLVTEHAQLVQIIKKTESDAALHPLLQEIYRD

PPAR gamma-LBD = target: T2, PPAR gamma-LBD (Homo sapiens, UniProt P37231); assay: PPAR assay, PPARγ; format: binding; conditions: sample final concentration 100 μM; positive control rosiglitazone; FIGS. 7 and 8
T2 sequence (P37231 238-503 limits assumed): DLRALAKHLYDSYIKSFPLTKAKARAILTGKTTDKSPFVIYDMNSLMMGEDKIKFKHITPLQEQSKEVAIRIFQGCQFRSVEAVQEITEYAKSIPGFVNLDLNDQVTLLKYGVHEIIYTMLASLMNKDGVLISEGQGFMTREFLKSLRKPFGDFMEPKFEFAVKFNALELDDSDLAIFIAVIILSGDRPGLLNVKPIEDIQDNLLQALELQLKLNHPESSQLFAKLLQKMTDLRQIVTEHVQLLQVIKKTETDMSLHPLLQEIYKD

[2] = tested on: YPEN-1 cells (rat prostatic endothelial cell line); assay: In vitro ROS scavenging activity assay (DCFDA); format: cell-based; conditions: cells pre-treated with 50 μM SIN-1 for 1 hour; DCFDA fluorescence; positive control trolox; FIGS. 1 and 2
Procedure: YPEN-1 cells (rat prostatic endothelial cell line) was obtained from American type culture collection (ATCC, Manassas, Va., USA), and the cells were cultured by using a dulbecco's modified eagle medium (DMEM, Nissui, Tokyo, Japan) containing 2 mM L-glutamine, […], 2.5 mg/L amphotericin B, and 5% inactivated fetal bovine serum (FBS). Also, the cells were maintained at a temperature of 37° C. in a humid atmosphere-like condition containing 5% CO2 and 95% air. […] The cells were sub-cultured in 100 mm plastic flask (Corning Co., New York, USA) every two days to maintain the cell line.
2′,7′-dichlorodihydrofluorescein diacetate (DCFDA) assay method according to a conventionally known method (Chem Res Toxicol. 5: 227-231, 1992) was used. In detail, 12.5 mM DCFDA dissolved in 99.9% ethanol and 600 U/ml esterase dissolved in tertiary distilled water were stored as a stock solution at a temperature of −20° C., and a 2′,7′-dichlorodihydrofluorescein (DCFH) solution prepared by mixing 10 mM DCFDA and 6 U/ml esterase was cultured at a temperature of 22° C. for 20 minutes, and then, refrigerated in a dark place before use. […] Vascular endothelial cells that were pre-treated with 50 μM 3-morpholinosydnonimine hydrochloride (SIN-1) for 1 hour were used as a reactive oxygen generation source.

Row | melting point | simultaneous activation of PPARα and PPARγ (PPAR alpha-LBD) | Structure (SMILES) | tyrosinase inhibitory activities, compared with kojic acid [1] | PPARα activation (competitive activation rate), compared with fenofibrate (PPAR alpha-LBD) | PPARγ activation (competitive activation rate), compared with rosiglitazone (PPAR gamma-LBD) | scavenging effects on ROS generated by vascular endothelial cells, compared with trolox [2]
1 |  |  | O=C(O)[C@@H]1CSC(c2ccc(O)cc2O)N1 (mixture of isomers) [Compound 3, (2R/S,4R)-2-(2,4-dihydroxyphenyl)thiazolidine-4-carboxylic acid] | better tyrosinase inhibitory activities than a kojic acid |  |  | 
2 | 137.7 to 139.2 °C |  | COc1ccc(C2N[C@H](C(=O)O)CS2)c(OC)c1 (mixture of isomers) [Compound 9, (2R/S,4R)-2-(2,4-dimethoxyphenyl)thiazolidine-4-carboxylic acid] | better tyrosinase inhibitory activities than a kojic acid |  |  | 
3 |  | simultaneously activates PPARα and PPARγ | Oc1ccc(-c2nc3ccccc3s2)cc1 [Compound 13, 4-(benzo[d]thiazol-2-yl)phenol] | better tyrosinase inhibitory activities than a kojic acid | very excellent PPARα activation agent compared to fenofibrate | very excellent PPARγ activation agent compared to rosiglitazone | 
4 |  |  | Oc1ccc(-c2nc3ccccc3s2)c(O)c1 [Compound 15, 4-(benzo[d]thiazol-2-yl)benzene-1,3-diol] | better tyrosinase inhibitory activities than a kojic acid |  |  | 
5 | 236.2 to 238.2 °C |  | Oc1ccc(-c2nc3cc(C(F)(F)F)ccc3s2)c(O)c1 [Compound 30, 4-(5-(trifluoromethyl)benzo[d]thiazol-2-yl)benzene-1,3-diol] | better tyrosinase inhibitory activities than a kojic acid |  |  | 
6 | 268.5 to 269.8 °C | simultaneously activates PPARα and PPARγ | Oc1ccc(-c2nc3ccccc3[nH]2)cc1O [Compound 44, 4-(1H-benzo[d]imidazol-2-yl)benzene-1,2-diol] |  | very excellent PPARα activation agent compared to fenofibrate | very excellent PPARγ activation agent compared to rosiglitazone | as high scavenging effects on ROS generated by vascular endothelial cells as trolox
7 | 259.3 to 263.1 °C |  | Oc1ccc(-c2nc3cc(Cl)ccc3s2)cc1 [Compound 82, 4-(5-chlorobenzo[d]thiazol-2-yl)phenol] | better tyrosinase inhibitory activities than a kojic acid |  |  | 
8 |  |  | O=C(O)c1csc(-c2ccc(O)cc2O)n1 [Compound 101, 2-(2,4-Dihydroxyphenyl)thiazole-4-carboxylic acid] | better tyrosinase inhibitory activities than a kojic acid |  |  | 
9 |  | simultaneously activates PPARα and PPARγ | Oc1ccc(C2Nc3cc(C(F)(F)F)ccc3S2)cc1Br (centres unmarked) [Compound 119, 2-bromo-4-(5-(trifluoromethyl)-2,3-dihydrobenzo[d]thiazol-2-yl)phenol] |  | very excellent PPARα activation agent compared to fenofibrate | very excellent PPARγ activation agent compared to rosiglitazone | as high scavenging effects on ROS generated by vascular endothelial cells as trolox

Row | Structure (SMILES) | melting point | simultaneous activation of PPARα and PPARγ (PPAR alpha-LBD) | tyrosinase inhibitory activities, compared with kojic acid [1] | PPARα activation (competitive activation rate), compared with fenofibrate (PPAR alpha-LBD) | PPARγ activation (competitive activation rate), compared with rosiglitazone (PPAR gamma-LBD) | scavenging effects on ROS generated by vascular endothelial cells, compared with trolox [2]
10 | Oc1ccc(-c2nc3ccccc3[nH]2)c(O)c1 [Compound 45, 4-(1H-benzo[d]imidazol-2-yl)benzene-1,3-diol] |  | simultaneously activates PPARα and PPARγ | better tyrosinase inhibitory activities than a kojic acid | very excellent PPARα activation agent compared to fenofibrate | very excellent PPARγ activation agent compared to rosiglitazone | 
